The record followed here is publication PMC12406203 (Journal of Medicinal Chemistry, 2025).

Molecules are shown by their SMILES.

Common to all, as to experiment: KINOMEscan
What all share (type): binding

In one assay the target is T1, MKNK2 (Homo sapiens, UniProt Q9HBH9).
T1 construct: purchased Eurofins DiscoverX, LLC; host or cells: E. coli (BL21-derived, T7 phage) or HEK-293
The procedure: (§1) The kinase inhibition profile of compounds 94 and 95 was assessed against 103 protein kinases by Eurofins DiscoverX, LLC., using the KINOMEscan assay. Kinase-tagged T7 phage strains were grown in parallel in 24-well blocks in an E. coli host derived from the BL21 strain. E. coli were grown to log-phase and infected with T7 phage from a frozen stock (multiplicity of infection = 0.4) and incubated with shaking at 32 °C until lysis (90–150 min). The lysates were centrifuged (6000g) and filtered (0.2 μm) to remove cell debris. The remaining kinases were produced in HEK-293 cells and subsequently tagged with DNA for qPCR detection. […] The liganded beads were blocked with excess biotin and washed with blocking buffer (SeaBlock (Pierce), 1% BSA, 0.05% Tween 20, 1 mM DTT) to remove unbound ligand and to reduce nonspecific phage binding. […] Test compounds were prepared as 100× stocks in 100% DMSO and directly diluted into the assay. All reactions were performed in polypropylene 384-well plates in a final volume of 0.02 mL. […] The kinase concentration in the eluates was measured by qPCR.
(§2) The compound(s) were screened at the concentration(s) requested, and results for primary screen binding interactions are reported as RA (%), where lower numbers indicate stronger hits in the matrix. RA=(testcompoundsignal−PCsignal/NCsignal−PCsignal)×100

Another assay has as its target T2, BRAF (Homo sapiens, UniProt P15056).
T2 construct: purchased Eurofins DiscoverX, LLC; host or cells: E. coli BL21-derived (T7 phage) or HEK-293
The procedure: as §1, §2

For a further assay, the target named is T3, ERBB2 (Homo sapiens, UniProt P04626).
T3 construct: purchased Eurofins DiscoverX, LLC; host or cells: E. coli (T7 phage) or HEK-293
The procedure:
as §1, §2

The target of another assay is T4, PLK3 (Homo sapiens, UniProt Q9H4B4).
T4 construct: purchased Eurofins DiscoverX, LLC; host or cells: E. coli BL21-derived host (T7 phage) or HEK-293
The procedure: as §1, §2

The next assay deals with T5, ABL1-nonphosphorylated (Homo sapiens, UniProt P00519).
T5 construct: purchased Eurofins DiscoverX, LLC; host or cells: E. coli BL21-derived (T7 phage) or HEK-293
The procedure:
as §1, §2

The target in the next assay is T6, JNK2 (Homo sapiens, UniProt P45984).
T6 construct: purchased Eurofins DiscoverX, LLC; host or cells: E. coli (BL21-derived, T7 phage) or HEK-293
The procedure: as §1, §2

The target of the next assay is T7, PDGFRA (Homo sapiens, UniProt P16234).
T7 construct: purchased Eurofins DiscoverX, LLC; host or cells: E. coli BL21-derived host (T7 phage) or HEK-293
The procedure: as §1, §2

For a further assay, the target named is T8, AURKA (Homo sapiens, UniProt O14965).
T8 construct: purchased Eurofins DiscoverX, LLC; host or cells: E. coli BL21-derived (T7 phage) or HEK-293
T8 sequence (O14965 1-403): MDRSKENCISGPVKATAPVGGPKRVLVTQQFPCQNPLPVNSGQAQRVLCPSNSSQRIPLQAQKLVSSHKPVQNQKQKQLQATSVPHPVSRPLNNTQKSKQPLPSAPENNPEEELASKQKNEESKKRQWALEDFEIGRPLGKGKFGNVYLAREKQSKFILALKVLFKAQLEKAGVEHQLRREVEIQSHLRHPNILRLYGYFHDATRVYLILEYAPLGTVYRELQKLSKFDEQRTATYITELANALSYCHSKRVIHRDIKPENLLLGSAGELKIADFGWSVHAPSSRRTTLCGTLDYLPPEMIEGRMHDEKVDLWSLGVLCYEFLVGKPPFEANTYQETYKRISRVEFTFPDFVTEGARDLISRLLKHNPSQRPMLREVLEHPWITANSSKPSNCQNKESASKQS
The procedure: as §1, §2

In assay [1] the target is T9, JAK3(JH1domain-catalytic) (Homo sapiens, UniProt P52333).
T9 construct: JAK3(JH1domain-; purchased Eurofins DiscoverX, LLC; host or cells: E. coli (T7 phage) or HEK-293
The procedure: as §1, §2

A further assay deals with T10, BMPR2 (Homo sapiens, UniProt Q13873).
T10 construct: purchased Eurofins DiscoverX, LLC; host or cells: E. coli BL21-derived (T7 phage) or HEK-293
T10 sequence (Q13873 27-1038): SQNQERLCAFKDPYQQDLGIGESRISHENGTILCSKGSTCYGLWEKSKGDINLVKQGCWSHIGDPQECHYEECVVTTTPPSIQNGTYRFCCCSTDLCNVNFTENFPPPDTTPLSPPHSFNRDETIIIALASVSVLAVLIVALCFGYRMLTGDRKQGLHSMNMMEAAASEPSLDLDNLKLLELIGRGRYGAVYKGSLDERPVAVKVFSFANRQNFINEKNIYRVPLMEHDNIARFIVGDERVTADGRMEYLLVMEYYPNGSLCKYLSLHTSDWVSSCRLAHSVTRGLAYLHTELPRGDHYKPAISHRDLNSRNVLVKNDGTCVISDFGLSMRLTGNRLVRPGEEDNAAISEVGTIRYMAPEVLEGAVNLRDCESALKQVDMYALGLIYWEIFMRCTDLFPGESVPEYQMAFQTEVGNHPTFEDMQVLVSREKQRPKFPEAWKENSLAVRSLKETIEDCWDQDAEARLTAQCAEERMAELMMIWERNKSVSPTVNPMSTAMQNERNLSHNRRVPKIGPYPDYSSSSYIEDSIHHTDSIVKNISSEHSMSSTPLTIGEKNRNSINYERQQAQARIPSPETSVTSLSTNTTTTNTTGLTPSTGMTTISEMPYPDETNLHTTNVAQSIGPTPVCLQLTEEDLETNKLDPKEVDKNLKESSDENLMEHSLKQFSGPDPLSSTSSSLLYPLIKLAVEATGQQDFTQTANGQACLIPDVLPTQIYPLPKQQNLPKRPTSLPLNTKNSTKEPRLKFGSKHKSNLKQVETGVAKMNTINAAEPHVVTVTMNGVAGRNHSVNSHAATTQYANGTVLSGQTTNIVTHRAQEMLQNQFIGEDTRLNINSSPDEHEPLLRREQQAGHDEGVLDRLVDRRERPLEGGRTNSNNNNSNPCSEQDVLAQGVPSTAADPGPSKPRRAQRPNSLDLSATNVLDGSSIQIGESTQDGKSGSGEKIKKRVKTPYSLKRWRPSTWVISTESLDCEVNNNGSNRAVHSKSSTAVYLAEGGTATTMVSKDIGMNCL
The procedure: as §1, §2

T6 sequence (P45984 whole entry): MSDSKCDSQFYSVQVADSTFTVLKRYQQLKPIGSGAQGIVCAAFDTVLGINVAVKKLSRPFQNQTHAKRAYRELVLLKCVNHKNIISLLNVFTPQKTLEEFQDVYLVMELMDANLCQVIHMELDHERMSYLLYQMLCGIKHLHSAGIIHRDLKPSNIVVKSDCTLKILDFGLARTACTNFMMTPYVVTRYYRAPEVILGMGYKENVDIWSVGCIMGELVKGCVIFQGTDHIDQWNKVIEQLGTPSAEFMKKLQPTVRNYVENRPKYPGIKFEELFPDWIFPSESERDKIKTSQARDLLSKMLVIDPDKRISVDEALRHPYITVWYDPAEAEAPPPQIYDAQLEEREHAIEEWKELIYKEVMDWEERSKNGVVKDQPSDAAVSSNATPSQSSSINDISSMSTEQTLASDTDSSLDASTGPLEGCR
T1 sequence (Q9HBH9 whole entry): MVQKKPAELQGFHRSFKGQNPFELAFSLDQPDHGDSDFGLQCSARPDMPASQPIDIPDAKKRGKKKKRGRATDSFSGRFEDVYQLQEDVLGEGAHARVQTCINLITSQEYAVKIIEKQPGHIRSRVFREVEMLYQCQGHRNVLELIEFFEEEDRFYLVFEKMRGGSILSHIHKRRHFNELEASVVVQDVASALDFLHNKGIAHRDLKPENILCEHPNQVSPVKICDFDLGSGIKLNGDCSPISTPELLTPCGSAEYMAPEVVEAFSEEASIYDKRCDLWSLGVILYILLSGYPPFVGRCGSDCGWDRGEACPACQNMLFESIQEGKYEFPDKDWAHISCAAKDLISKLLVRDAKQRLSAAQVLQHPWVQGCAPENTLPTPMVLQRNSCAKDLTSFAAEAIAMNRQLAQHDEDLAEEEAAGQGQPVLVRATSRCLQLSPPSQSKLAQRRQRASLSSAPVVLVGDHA
T3 sequence (P04626 23-1255): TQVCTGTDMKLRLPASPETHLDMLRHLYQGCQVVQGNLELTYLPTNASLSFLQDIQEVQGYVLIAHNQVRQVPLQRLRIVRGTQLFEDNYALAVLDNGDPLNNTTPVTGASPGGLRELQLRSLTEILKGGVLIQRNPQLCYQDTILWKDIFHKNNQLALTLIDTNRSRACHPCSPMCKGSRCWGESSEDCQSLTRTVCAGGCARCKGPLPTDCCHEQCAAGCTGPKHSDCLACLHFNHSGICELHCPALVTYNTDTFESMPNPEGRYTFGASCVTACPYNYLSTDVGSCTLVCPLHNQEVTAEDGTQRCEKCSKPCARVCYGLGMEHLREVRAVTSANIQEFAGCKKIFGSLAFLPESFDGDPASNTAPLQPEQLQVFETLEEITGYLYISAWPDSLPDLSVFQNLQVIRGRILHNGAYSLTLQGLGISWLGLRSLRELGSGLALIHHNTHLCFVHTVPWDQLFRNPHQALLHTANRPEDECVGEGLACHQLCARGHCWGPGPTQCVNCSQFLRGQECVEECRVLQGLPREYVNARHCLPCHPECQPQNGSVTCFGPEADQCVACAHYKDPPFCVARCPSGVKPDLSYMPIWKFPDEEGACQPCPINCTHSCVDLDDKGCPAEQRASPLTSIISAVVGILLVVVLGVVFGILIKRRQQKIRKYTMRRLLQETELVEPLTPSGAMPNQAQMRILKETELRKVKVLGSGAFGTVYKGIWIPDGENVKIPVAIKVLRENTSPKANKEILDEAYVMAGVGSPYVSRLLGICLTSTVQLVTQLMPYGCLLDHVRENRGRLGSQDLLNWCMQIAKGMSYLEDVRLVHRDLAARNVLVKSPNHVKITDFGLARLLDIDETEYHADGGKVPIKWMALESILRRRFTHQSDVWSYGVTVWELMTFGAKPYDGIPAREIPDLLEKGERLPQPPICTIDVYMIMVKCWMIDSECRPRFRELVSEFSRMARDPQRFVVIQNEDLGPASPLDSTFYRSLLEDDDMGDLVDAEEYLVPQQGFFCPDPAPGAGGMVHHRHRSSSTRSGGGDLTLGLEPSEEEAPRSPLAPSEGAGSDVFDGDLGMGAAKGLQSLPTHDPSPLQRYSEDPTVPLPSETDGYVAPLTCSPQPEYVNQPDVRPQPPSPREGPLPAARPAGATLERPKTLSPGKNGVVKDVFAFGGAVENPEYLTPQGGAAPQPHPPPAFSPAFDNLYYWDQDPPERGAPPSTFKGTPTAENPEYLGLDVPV
T7 sequence (P16234 24-1089): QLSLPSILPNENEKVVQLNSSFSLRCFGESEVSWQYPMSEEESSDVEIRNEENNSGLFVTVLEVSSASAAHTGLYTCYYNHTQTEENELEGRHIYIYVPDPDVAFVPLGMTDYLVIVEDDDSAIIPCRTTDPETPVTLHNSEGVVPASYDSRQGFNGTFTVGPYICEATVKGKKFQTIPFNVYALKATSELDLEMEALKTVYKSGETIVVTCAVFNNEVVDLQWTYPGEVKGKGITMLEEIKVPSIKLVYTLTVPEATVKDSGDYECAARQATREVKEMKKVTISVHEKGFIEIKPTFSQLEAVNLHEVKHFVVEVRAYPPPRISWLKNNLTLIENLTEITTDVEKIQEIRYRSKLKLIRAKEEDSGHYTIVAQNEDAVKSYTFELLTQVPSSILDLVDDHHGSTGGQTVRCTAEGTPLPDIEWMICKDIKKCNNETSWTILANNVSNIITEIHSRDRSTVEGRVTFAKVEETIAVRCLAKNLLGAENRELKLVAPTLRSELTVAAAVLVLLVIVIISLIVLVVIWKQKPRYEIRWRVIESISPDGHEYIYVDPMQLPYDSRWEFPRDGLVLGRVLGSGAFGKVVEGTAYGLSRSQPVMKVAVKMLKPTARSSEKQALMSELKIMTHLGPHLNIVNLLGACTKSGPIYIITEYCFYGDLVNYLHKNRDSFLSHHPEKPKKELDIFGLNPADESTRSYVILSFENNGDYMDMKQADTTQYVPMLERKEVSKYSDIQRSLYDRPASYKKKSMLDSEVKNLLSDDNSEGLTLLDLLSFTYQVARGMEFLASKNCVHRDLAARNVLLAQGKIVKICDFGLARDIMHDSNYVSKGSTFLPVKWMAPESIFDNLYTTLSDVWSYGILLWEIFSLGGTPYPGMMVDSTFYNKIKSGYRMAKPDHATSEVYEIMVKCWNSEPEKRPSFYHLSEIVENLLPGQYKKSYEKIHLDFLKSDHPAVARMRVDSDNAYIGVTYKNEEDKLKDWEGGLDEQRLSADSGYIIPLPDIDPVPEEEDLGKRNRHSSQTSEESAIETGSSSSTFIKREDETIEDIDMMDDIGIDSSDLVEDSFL
T9 sequence (P52333 822-1111 limits assumed): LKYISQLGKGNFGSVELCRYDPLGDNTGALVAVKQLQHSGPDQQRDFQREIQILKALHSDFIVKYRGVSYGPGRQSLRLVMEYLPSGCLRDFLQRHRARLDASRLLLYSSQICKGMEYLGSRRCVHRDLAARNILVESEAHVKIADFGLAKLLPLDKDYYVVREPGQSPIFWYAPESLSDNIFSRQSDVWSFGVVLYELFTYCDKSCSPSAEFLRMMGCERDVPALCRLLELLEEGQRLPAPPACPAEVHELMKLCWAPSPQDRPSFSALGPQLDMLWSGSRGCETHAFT
T2 sequence (P15056 whole entry): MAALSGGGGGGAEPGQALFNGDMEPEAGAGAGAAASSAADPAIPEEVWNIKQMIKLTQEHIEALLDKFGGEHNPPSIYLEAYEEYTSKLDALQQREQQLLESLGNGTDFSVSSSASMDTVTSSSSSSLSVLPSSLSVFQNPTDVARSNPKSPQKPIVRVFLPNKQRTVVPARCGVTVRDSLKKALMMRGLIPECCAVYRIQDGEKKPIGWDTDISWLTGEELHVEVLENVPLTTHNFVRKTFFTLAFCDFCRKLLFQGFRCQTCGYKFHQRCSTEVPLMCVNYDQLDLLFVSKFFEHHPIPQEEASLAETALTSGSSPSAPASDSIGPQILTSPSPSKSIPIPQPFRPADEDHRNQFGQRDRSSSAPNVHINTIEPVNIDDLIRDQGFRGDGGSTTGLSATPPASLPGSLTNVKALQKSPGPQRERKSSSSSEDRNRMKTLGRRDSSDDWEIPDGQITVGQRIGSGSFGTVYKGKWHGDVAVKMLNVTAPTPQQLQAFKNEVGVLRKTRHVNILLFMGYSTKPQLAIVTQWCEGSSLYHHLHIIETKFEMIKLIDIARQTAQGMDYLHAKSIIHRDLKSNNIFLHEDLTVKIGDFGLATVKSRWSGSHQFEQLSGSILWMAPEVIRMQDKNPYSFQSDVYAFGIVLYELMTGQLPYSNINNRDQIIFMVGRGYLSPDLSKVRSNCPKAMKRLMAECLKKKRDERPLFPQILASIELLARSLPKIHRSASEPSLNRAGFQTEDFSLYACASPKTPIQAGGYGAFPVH
T4 sequence (Q9H4B4 whole entry): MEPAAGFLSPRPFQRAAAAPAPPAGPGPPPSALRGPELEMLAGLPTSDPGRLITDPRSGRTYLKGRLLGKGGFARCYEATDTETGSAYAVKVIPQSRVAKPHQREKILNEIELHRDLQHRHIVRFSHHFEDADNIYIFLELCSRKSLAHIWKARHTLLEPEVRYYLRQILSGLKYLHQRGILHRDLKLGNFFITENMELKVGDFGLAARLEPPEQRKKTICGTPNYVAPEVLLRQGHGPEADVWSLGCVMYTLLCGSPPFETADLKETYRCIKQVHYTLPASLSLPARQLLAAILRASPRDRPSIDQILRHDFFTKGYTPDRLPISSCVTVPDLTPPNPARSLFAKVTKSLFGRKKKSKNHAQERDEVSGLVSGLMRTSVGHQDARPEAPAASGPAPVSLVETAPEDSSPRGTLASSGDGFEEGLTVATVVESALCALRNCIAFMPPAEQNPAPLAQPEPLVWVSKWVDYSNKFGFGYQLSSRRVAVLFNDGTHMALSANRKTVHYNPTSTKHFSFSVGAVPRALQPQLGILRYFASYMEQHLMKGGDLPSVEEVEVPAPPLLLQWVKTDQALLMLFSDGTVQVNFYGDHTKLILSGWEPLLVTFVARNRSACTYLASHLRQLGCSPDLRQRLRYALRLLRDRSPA

Consider `CC(C)Cn1ncc2cc(Cc3ccc(F)cc3F)c(C(=O)NCCN(C)C)cc21` [Compound 94, 5-(2,4-Difluorobenzyl)-N-(2-(dimethylamino)ethyl)-1-isobutyl-1H-indazole-6-carboxamide], for which the “RA @ 1000nM” value at MKNK2 was 76%; at BRAF, 100%; at ERBB2 it was 74%; on PLK3 it was 100%; at ABL1-nonphosphorylated it was 85%; on JNK2, 52%. Moreover, the “RA @ 1000nM” value at PDGFRA amounted to 96%; at AURKA it was 96%; in assay [1] it was 100%; at BMPR2, 86%. Moreover, the “RA @ 10000nM” value at MKNK2 is 80%; on BRAF, 100%; at ERBB2, 81%; on PLK3 it was 97%; on ABL1-nonphosphorylated, 97%; on JNK2 it was 8.3%. For the same molecule, the “RA @ 10000nM” value on PDGFRA is listed as 76%; at AURKA it was 93%; in assay [1], 100%; on BMPR2 it was 95%.
Regarding `CN(C)CCNC(=O)c1cc2c(cnn2CC2CCCCC2)cc1Cc1ccc(F)cc1F` [Compound 95, 1-(Cyclohexylmethyl)-5-(2,4-difluorobenzyl)-N-(2-(dimethylamino)ethyl)-1H-indazole-6-carboxamide], the “RA @ 1000nM” value is 81% on MKNK2; 100% on BRAF; 84% at ERBB2; 88% on PLK3; 90% at ABL1-nonphosphorylated; 44% on JNK2. Also, the “RA @ 1000nM” value at PDGFRA amounted to 92%; on AURKA it was 95%; in assay [1], 100%; at BMPR2, 89%. Further, the “RA @ 10000nM” value is recorded as 67% on MKNK2; 100% on BRAF; 78% on ERBB2; 100% at PLK3; 90% at ABL1-nonphosphorylated; 3.8% on JNK2. In addition, the “RA @ 10000nM” value stood at 92% at PDGFRA, 93% on AURKA, 100% in assay [1] and 92% on BMPR2.
